Results from US20230278972A1, “SUBSTITUTED HALOALKYL SULFONANILIDE HERBICIDES” (FMC Corporation, priority 2020, published 2023).

Tests used:
Type in all cases: in vivo
[1] = tested on: galium (catchweed bedstraw, Galium aparine); assay: Test A1 postemergence, galium; settings: Postemergence
Procedure, shortened: (§1)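 Herbicidal response was scored on plants treated either preemergence, by directed spray onto soil of a loam–sand blend after sowing, or postemergence on potted plants at the one- to two-leaf stage, 2–10 cm high. Test chemicals were carried in a non-phytotoxic solvent mix with surfactant.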

[2] = tested on: Oat, Wild (wild oat, Avena fatua); assay: Test A1 postemergence, Oat, Wild; settings: Postemergence
Procedure, shortened: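 Seeds were first planted into a blend of loam soil and sand and given a preemergence directed soil spray. In parallel, pots of the same soil were sown for postemergence application once plants reached 2 to 10 cm and the one- to two-leaf stage. Both used surfactant-containing non-phytotoxic solvent formulations.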

[3] = tested on: blackgrass (Alopecurus myosuroides); assay: Test A1 preemergence, blackgrass
Procedure, shortened: (§2)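 Plants grown in pots of loam/sand mix; preemergence = soil-directed spray on seeded pots, postemergence = spray at 1–2 leaves, height 2–10 cm; test chemicals formulated in non-phytotoxic solvent with surfactant.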

[4] = tested on: Ryegrass, Italian (Italian ryegrass, Lolium multiflorum); assay: Test A1 postemergence, Ryegrass, Italian; settings: Postemergence
Procedure, shortened: as §1

[5] = tested on: kochia (Bassia scoparia); assay: Test A1 preemergence, kochia
Procedure, shortened: as §2

[6] = tested on: ducksalad (Heteranthera limosa); assay: Test B1 flooded paddy test, ducksalad; settings: 250 g ai/ha, Flood, applied to paddy water, 2-leaf stage, visually evaluated after 10 to 14 days
Source text: A dash (-) response means no test result.

[7] = 31 g ai/ha, 0 to 100 scale (0 no effect, 100 complete control), 10 days
[8] = 31 g ai/ha, 0 to 100 scale (0 no effect, 100 complete control)
[9] = 125 g ai/ha, 0 to 100 scale, 0 no effect, 100 complete control

SMILES | Plant response rating, Galium [1, 7] | Plant response rating, Galium ([1]; 125 g ai/ha, 0 to 100 scale) | Plant response rating, Oat, Wild [2, 7] | Plant response rating, Oat, Wild ([2]; 125 g ai/ha, 0 to 100 scale) | Plant response rating, Blackgrass [3, 8] | Plant response rating, Blackgrass [3, 9] | Plant response rating, Ryegrass, Italian [4, 7] | Plant response rating, Ryegrass, Italian ([4]; 125 g ai/ha, 0 to 100 scale) | Plant response rating, Kochia [5, 8] | Plant response rating, Kochia [5, 9] | Plant response rating, Ducksalad (0 to 100 scale, 0 is no effect, 100 is complete control) [6]
CCC1ON=C(c2cc(NS(=O)(=O)C(F)(F)F)c(C)cc2C)C1CC (stereo not drawn) [Compound 346] | 70 | 100 | 20 | 40 | 80 | 90 | 0 | 80 | 30 | 30 | 65
CCC1ON=C(c2cc(N(COC(=O)C(C)(C)C)S(=O)(=O)C(F)(F)F)c(C)cc2C)C1CC (stereo not drawn) [Compound 347] | 30 | 100 | 10 | 20 | 10 | 30 | 0 | 60 | 0 | 50 | 55
Cc1cc(C)c(C2=NOC3OCCC23)cc1NS(=O)(=O)C(F)(F)F (stereo not drawn) [Compound 349] | 100 | 100 | 0 | 30 | 50 | 80 | 60 | 90 | 80 | 100 | 80
CCOC(=O)N(c1cc(C(=O)N2CCC(F)(F)CC2)c(C)cc1C)S(=O)(=O)C(F)(F)F [Compound 351] | 80 | 100 | 0 | 10 | 10 | 50 | 20 | 50 | 20 | 90 | 70
Cc1cc(C)c(N(COC(=O)C(C)(C)C)S(=O)(=O)C(F)(F)F)cc1C1=NOC2OCCC12 (stereo not drawn) [Compound 352] | 100 | 100 | 0 | 20 | 20 | 40 | 0 | 90 | 30 | 100 | 65
Cc1cc(C)c(N(COC(=O)C(C)(C)C)S(=O)(=O)C(F)(F)F)cc1C(=O)N1CCC(C)CC1 [Compound 353] | 50 | 70 | 0 | 10 | 0 | 0 | 0 | 0 | 0 | 20 | 65
CCOC(=O)N(c1cc(C(=O)N2CCC(C)CC2)c(C)cc1C)S(=O)(=O)C(F)(F)F [Compound 354] | 40 | 80 | 0 | 10 | 0 | 0 | 0 | 40 | 0 | 20 | 60
Cc1cc(C2CC2)c(C2=NOC3CCCC23)cc1N(COC(=O)C(C)(C)C)S(=O)(=O)C(F)(F)F (stereo not drawn) [Compound 355] | 40 | 60 | 0 | 10 | 0 | 0 | 30 | 40 | 0 | 0 | 45
Cc1c(NS(=O)(=O)C(F)(F)F)cc(C(=O)N2CCC(Cl)CC2)c(C)c1C [Compound 356] | 70 | 100 | 0 | 10 | 0 | 10 | 20 | 30 | 0 | 30 | 45
Cc1c(C(=O)N2CCC(Cl)CC2)cc(N(COC(=O)C(C)(C)C)S(=O)(=O)C(F)(F)F)c(C)c1C [Compound 359] | 50 | 80 | 0 | 0 | 0 | 0 | 0 | 0 | 0 | 0 | 25
Cc1c(C(=O)N2CCC(F)(F)CC2)cc(N(COC(=O)C(C)(C)C)S(=O)(=O)C(F)(F)F)c(C)c1C [Compound 360] | 50 | 100 | 0 | 0 | 0 | 0 | 0 | 0 | 0 | 30 | 65
Cc1c(C(=O)N2CCC(F)CC2)cc(N(COC(=O)C(C)(C)C)S(=O)(=O)C(F)(F)F)c(C)c1C [Compound 361] | 80 | 90 | 0 | 20 | 0 | 0 | 0 | 0 | 0 | 30 | 65
Cc1cc(C)c(N(COC(=O)C(C)(C)C)S(=O)(=O)C(F)(F)F)cc1C(=O)N1CCOCC1 [Compound 362] | 60 | 80 | 0 | 10 | 10 | 50 | 30 | 90 | 50 | 90 | 50
CCOC(=O)N(c1cc(C(=O)N2CCOCC2)c(C)cc1C)S(=O)(=O)C(F)(F)F [Compound 363] | 60 | 90 | 20 | 50 | 50 | 90 | 20 | 90 | 80 | 100 | 70
Cc1cc(C)c(N(COC(=O)C(C)(C)C)S(=O)(=O)C(F)(F)F)cc1C(=O)N1CCC(c2ccccc2)CC1 [Compound 364] | 0 | 30 | 0 | 0 | 0 | 0 | 0 | 0 | 0 | 0 | 0
